# According to patent US9839647B2, “Equol concentration increasing agent containing psicose as active ingredient” (CJ CHEILJEDANG CORPORATION, priority 2011, dated 2017):
# Tested on: equol producing microorganism population
# Test: Change in produced equol amount in the presence of carbohydrate (TLC image analysis)
# Assay type: cell-based, human
# Conditions: 1% carbohydrate, 0.1 mM daidzein, three days; xylose = 100; average of image analysis for two coloring methods
# Method: The activity for regulating equol concentration by psicose was calculated as follows. To a microorganism population stock having capability to produce equol (obtained by centrifuging and washing feces taken from equol producers, KR Patent Registration No. 2008-0072635), daidzein as a substrate for equol, and psicose were added, followed by culturing and measuring the equol concentration in a culture solution. The measured equol concentration was inserted together with equol concentration in a culture solution containing daidzein and xylose into Equation for calculating equol variation percentage below: Equol variation percentage (%)=(Equol concentration in the culture solution containing psicose and daidzein)/(Equol concentration in the culture solution containing xylose and daidzein)×100
# GAM (Gifu anaerobic medium) medium (4 ml) was inoculated with equol producing microorganism population stock stored in liquid nitrogen (obtained by centrifuging and washing feces taken from equol producers, KR Patent Registration No. 2008-0072635), followed by cultivating for 3-4 hours to activate.
# When OD (optical density) approached 1.5, 200 μl of medium was taken and transferred to an Eppendorf tube. To the Eppendorf tube, 0.1 mM of daidzein was added, followed by vortexing to initiate reaction.
# In order to measure equol production over time, 50 μl of medium was sampled 1, 2 and 3 days after the inoculation.
# To the medium, 1 ml of ethyl acetate was added to extract isoflavonoids. Extraction was performed as follows: after vortexing and centrifugation, 800 μl of ethyl acetate was taken from the medium, followed by removal of the solvent through vacuum drying. Then, the resultant was dissolved in 10 μl of methanol. 2 μl was used to perform TLC.
# Equol producing microorganism population was inoculated and the product was extracted in the same manner as in Example 1 except that, before the substrate was inoculated with the activated microorganism population, the final concentration of carbohydrate was adjusted to 1% by adding 2 mg each of xylose, tagatose, psicose, sucrose, fructo-oligosaccharide, and glucose. Further, only daidzein was used as the substrate. Unlike the case where pure daidzein was used, the reaction rate of producing equol was changed when carbohydrates were added. Namely, the production of equol occurred more slowly for a long period of time.
# In order to compare variation in the produced equol amount in the product, quantitative analysis of TLC results was performed using an image analyzer.
# Assuming the produced equol amount in the culture solution containing xylose and daidzein to be 100, the produced equol amount after addition of each carbohydrate for three days was compared. The comparison results are as follows.
row,Molecule,Variation (produced equol amount relative to culture solution containing xylose and daidzein) [%]
1,"O=C(CO)[C@H](O)[C@H](O)[C@H](O)CO [Psicose, D-psicose]",139
2,"O=C[C@H](O)[C@@H](O)[C@H](O)CO [Xylose, xylose]",100
3,"OC[C@H]1O[C@@](CO)(O[C@H]2O[C@H](CO)[C@@H](O)[C@H](O)[C@H]2O)[C@@H](O)[C@@H]1O [Sucrose, sucrose]",54
4,"O=C(CO)[C@@H](O)[C@@H](O)[C@H](O)CO [Tagatose, tagatose]",54

# Same assay, conditions: reaction condition for three days
row,Molecule,equol production
1,"O=C(CO)[C@H](O)[C@H](O)[C@H](O)CO [Psicose, D-psicose]",significantly promoted equol production

# Tested on: intestinal bacteria capable of producing equol
# Test: not given
# Conditions: saccharide no add = 100.0; cited from earlier work
row,Molecule,Activity to regulate equol concentration [%]
1,"O=C[C@H](O)[C@H](O)[C@H](O)CO [Ribose, ribose]",329.6
2,OC[C@@H](O)[C@@H](O)[C@H](O)[C@@H](O)CO [Sorbiol],372.5
3,OC[C@H]1O[C@H](OCC2O[C@@H](O)[C@H](O)[C@@H](O)[C@@H]2O)[C@H](O)[C@@H](O)[C@H]1O (some centres unmarked) [Melibiose],24.8
4,"OC[C@@H](O)[C@@H](O)[C@@H](O)CO [Adonitol, adonitol]",260.0
5,"O=C[C@H](O)[C@@H](O)[C@H](O)CO [Xylose, xylose]",442.6
6,OC[C@H]1O[C@H](OC[C@H]2O[C@H](O[C@]3(CO)O[C@H](CO)[C@@H](O)[C@@H]3O)[C@H](O)[C@@H](O)[C@@H]2O)[C@H](O)[C@@H](O)[C@H]1O [Raffinose],0.0
7,"O=C[C@H](O)[C@@H](O)[C@@H](O)[C@H](O)CO [Galactose, galactose]",240.1
8,O=C(CO)[C@@H](O)[C@H](O)[C@H](O)CO [Fructose],51.5
9,"O=C[C@@H](O)[C@H](O)[C@H](O)CO [Arabinose, arabinose]",391.1
10,OC[C@H]1O[C@@H](O[C@H]2[C@H](O)[C@@H](O)C(O)O[C@@H]2CO)[C@H](O)[C@@H](O)[C@H]1O (some centres unmarked) [Lactose],0.0
11,"OC[C@H]1O[C@H](O[C@H]2O[C@H](CO)[C@@H](O)[C@H](O)[C@H]2O)[C@H](O)[C@@H](O)[C@@H]1O [Trehalose, trehalose]",403.5
12,OC[C@H]1O[C@@H](O[C@@H]2[C@@H](CO)OC(O)(CO)[C@H]2O)[C@H](O)[C@@H](O)[C@H]1O (mixture of isomers) [Lactulose],8.1
13,"OC[C@@H](O)[C@@H](O[C@@H]1O[C@H](CO)[C@H](O)[C@H](O)[C@H]1O)[C@H](O)[C@@H](O)CO [Lactitol, lactitol]",459.1
14,OC[C@H]1O[C@H](O[C@H]2[C@H](O)[C@@H](O)[C@H](O)O[C@@H]2CO)[C@H](O)[C@@H](O)[C@@H]1O [Maltose],58.5
15,"OC[C@H]1O[C@@](CO)(O[C@H]2O[C@H](CO)[C@@H](O)[C@H](O)[C@H]2O)[C@@H](O)[C@@H]1O [Sucrose, sucrose]",0.0
16,"O[C@H]1[C@H](O)[C@@H](O)[C@H](O)[C@@H](O)[C@H]1O [Inositol, inositol]",416.2
17,"OC[C@H]1O[C@@](CO)(O[C@H]2O[C@H](CO)[C@@H](O)[C@H](O)[C@H]2O)[C@@H](O[C@H]2O[C@H](CO)[C@@H](O)[C@H](O)[C@H]2O)[C@@H]1O [Melezitose, melezitose]",411.6
18,Glycogen,184.8
19,OC[C@@H](O)[C@@H](O)[C@H](O)[C@H](O)CO [Mannitol],182.2
20,C[C@H](O)[C@H](O)[C@@H](O)[C@@H](O)C=O [Rhamnose],116.4
21,Inulin,0.0
22,"OC[C@@H](O)[C@@H](O)CO [Erythritol, erythritol]",214.2
23,"O=C(CO)[C@H](O)[C@@H](O)[C@H](O)CO [Sorbose, sorbose]",467.7
24,O=C[C@H](O)[C@@H](O)[C@H](O[C@@H]1O[C@H](CO)[C@@H](O)[C@H](O)[C@H]1O)[C@H](O)CO [Cellobiose],160.6
